Results from publication PMC7503308, “A Novel Urease Inhibitor of Ruminal Microbiota Screened through Molecular Docking” (International Journal of Molecular Sciences, 2020).
“Also recorded” adds a separate entry of the source.

Tests used:
[1] = system: ruminal microbial urease; test: Kinetic characterization of urease inhibition (nonlinear Michaelis-Menten fitting); type: biochemical, rumen bacteria of Chinese Holstein dairy cows
Protocol: Rumen fluid samples were collected from five Chinese Holstein dairy cows with permanent rumen fistula 3 h after feeding a total mixed ration in the morning. All the operations were conducted in accordance with the protocol approved by the Animal Care and Use Committee for Livestock of the Institute of Animal Sciences, Chinese Academy of Agricultural Sciences (Permit Number: IAS2019-14, Permit Date: 22-03-2019). All rumen fluid samples were filtered by a six layer sterilized medical gauze and mixed in a sterilized beaker before being evenly distributed into different 50 mL tubes and stored in liquid nitrogen. The deforested samples were centrifuged at 12,000× g for 10 min at 4 °C, then the supernatant was removed from the tube. The remaining sediments were resuspended in a HEPES buffer solution (pH 7.5, 50 mM) and then centrifuged at 12,000× g for 10 min at 4 °C. The supernatant was discarded and the remaining rumen bacteria were collected and stored at −80 °C for later urease extraction. All the sample handing processes were conducted on an ice bath. Before each urease inhibition assay, 2 g of rumen bacteria were taken from the fridge and resuspended in a HEPES buffer followed by lysis through a high-pressure cell press JG-1A (Ningbo Scientz Biotechnology Co., Ltd., Ningbo, China). The hollow cylindrical sample loading element was placed in −80 °C for 10 min before the high-pressure lysis at 22,000 psi. […] The kinetic of the compound was determined by varying the concentration of urea in the presence of different compound 6238-0047 concentrations of 0.25 and 0.5 mM in the assay mixture. […] Maximal initial velocities were determined from the initial linear portion of the absorbance up to 10 min after the addition of the enzyme. Kinetic parameters Km and Vmax were calculated by the nonlinear fitting of different substrate concentrations against the velocities of the reaction at each different concentrations of compound 6238-0047 using the GraphPad Prism software as mentioned before.

[2] = system: ruminal microbiota; test: Ruminal microbial fermentation in vitro (six generations): urea and NH3-N; type: cell-based, rumen fluid of Chinese Holstein dairy cows; conditions: 100 μM compound, 24 h, p < 0.01
Protocol: Seven solutions were prepared for the anaerobic media as solution A (3 g/L K2HPO4), solution B (0.6 g/L CaCl2, 3 g/L K2HPO4, 6 g/L NaCl, 0.6 g/L MgSO4·7H2O), solution C (6 g/L K2HPO4), solution D (1.6 g/L CaCl2·2H2O, 6 g/L K2HPO4, 12 g/L NaCl, 2.5 g/L MgSO4·7H2O), trace element solution (300 mg/L H3BO3, 100 mg/L ZnSO4·7H2O, 30 mg/L MnCl2·4H2O, 20 mg/L CoCl2·6H2O, 30 mg/L Na2MoO4·2H2O, 10 mg/L Na2SeO3, 20 mg/L NiCl2, 10 mg/L CuCl2·2H2O, 150 mg/L FeCl2·4H2O), volatile fatty acid (VFA) mixed solution (17 mL acetic acid, 6 mL propionic acid, 4 mL butyric acid, 1 mL n-valeric acid, 1 mL isovaleric acid, and 1 mL isobutyric acid), and hemin solution, prepared by diluting 50 mg of Haemon in NaOH (1 N solution) and made up to 100 mL with distilled water. Each liter of anaerobic media contained 30 mL of autoclaved rumen fluid supernatant, 0.5 g of glucose, 0.5 g of soluble starch, 0.5 g of cellobiose, 0.5 g of maltose, 0.5 g of […], 0.5 g of tripticase, 0.5 g of yeast extract, 8 g of NaHCO3, 0.1 mL of trace elements solution, 15 mL solution A, 15 mL solution B, 0.5 g of cysteine hydrochloride, 10 mL of hemin solution, 3.1 mL of VFA mixed solution, and 1 mg resazurin. The anaerobic urea solution was prepared using an anaerobic glove box, by dissolving 2.5 g of urea in a 50 mL anaerobic diluent. This diluent consisted of 3.8 mL of salt solution C, 3.8 mL of salt solution D, 5 mL of 8% sodium Na2CO3, 1 mL of 0.1% resazurin, 0.5 g of cysteine hydrochloride dissolved in distilled water and made up to 1000 mL and distributed into 50 mL anaerobic bottles. All the anaerobic bottles were sterilized by autoclave. Prior to the inoculation, fresh frozen rumen fluid samples, pretreated as described previously, were removed from the freezer, thawed, homogenized, and used immediately. […] Chromatographic gradients were referenced to the paper.

## COc1ccc(-c2ccc(CCC(=O)O)n2NC(N)=O)cc1 [6238-0047, 3-[1-[(aminocarbonyl)amino]-5-(4-methoxyphenyl)-1H-pyrrol-2-yl] propanoic acid]
[1]; 0.25 mM of compound
  Vmax: 12.58 µM/min
[1]; 0.5 mM of compound
  Vmax: 9.67 µM/min
[1]; from change of Km, Vmax and Vmax/Km
  Inhibition mode: mixed type inhibitor
[2]; 16.65 mM urea
  Amount of urea degradation vs control group: significantly lowered the amount of urea degradation
[2]
  NH3-N concentration / production vs control group: significantly lower than the control group; also recorded: consistently lower than the control group
